Reference: patent US12421210B2, “Fused bicyclic heterocycles as therapeutic agents” (NEW YORK UNIVERSITY, priority 2018, dated 2025)

Target: human NAMPT enzyme (His-hNAMPT) (Homo sapiens (Human), UniProt P43490)
Assay: NAMPT enzymatic inhibition assay (fluorescence, NADH product)
Assay type: biochemical
Settings: [BPS]; read-out: NAMPT IC50 (μM) [BPS]
Description: The compounds were then diluted 20 fold in an intermediate dilution to 5% DMSO and water. Finally 10 μL of each compound was added to the assay plate, in duplicate, with highest concentration at 30 μM and the lowest at 0.001 μM in a final volume of 50 μL and 1% DMSO concentration. Each assay also tested, in parallel, two reference compounds, FK866 and GMX1778, with highest concentration at 10 μM and lowest at 0.0003 μM. 200 ng of human NAMPT enzyme (His-hNAMPT obtained from E. coli expression system) diluted in […] (tris-buffered saline-Polysorbate 20) 1× was added to each well in a volume of 10 μL and the compounds were incubated with the enzyme at room temperature for 20 minutes. After the incubation, 30 μL of master mixture were added to each well. The master mixture contained: 50 mM Tris-HCl, pH 8.0, 12.5 mM MgCl2, 20 μM nicotinamide, 40 μM phosphoribosyl pyrophosphate (PRPP), 20 μM adenosine triphosphate (ATP), 30 μg/mL of alcohol dehydrogenase, 10 μg/mL of NMNAT, 1.5% alcohol, 1 mM dithiothreitol (DTT), 0.02% bovine serum albumin (BSA), 0.01% Tween 20. The reaction was performed at 30° C. for 60 minutes. Fluorescence intensity was measured at an excitation of 340 nm and an emission of 460 nm using a Tecan Infinite M1000 microplate reader. The fluorescence values indicated increase of NADH product.
Enzyme activity assay was performed in duplicate at each concentration. The fluorescence data was analyzed and compared. In the absence of the compound, the intensity (Ce) in each data set was defined as 100% activity. In the absence of enzyme, the intensity (C0) in each data set was defined as 0% activity. The percent activity in the presence of each compound was calculated according to the following equation: % activity=(C−C0)/(Ce−C0), where C is the fluorescence in the presence of the compound.
The % activity vs. compound concentrations were then plotted using non-linear regression analysis of Sigmoidal dose-response curve generated with the equation Y=B+(T−B)/1+10^((Log EC50-X)×Hill Slope), where Y is percent activity, B is minimum percent activity, T is maximum percent activity, X is logarithm of compound and Hill Slope=slope factor or Hill coefficient.

human NAMPT enzyme (His-hNAMPT), sequence (P43490 whole entry): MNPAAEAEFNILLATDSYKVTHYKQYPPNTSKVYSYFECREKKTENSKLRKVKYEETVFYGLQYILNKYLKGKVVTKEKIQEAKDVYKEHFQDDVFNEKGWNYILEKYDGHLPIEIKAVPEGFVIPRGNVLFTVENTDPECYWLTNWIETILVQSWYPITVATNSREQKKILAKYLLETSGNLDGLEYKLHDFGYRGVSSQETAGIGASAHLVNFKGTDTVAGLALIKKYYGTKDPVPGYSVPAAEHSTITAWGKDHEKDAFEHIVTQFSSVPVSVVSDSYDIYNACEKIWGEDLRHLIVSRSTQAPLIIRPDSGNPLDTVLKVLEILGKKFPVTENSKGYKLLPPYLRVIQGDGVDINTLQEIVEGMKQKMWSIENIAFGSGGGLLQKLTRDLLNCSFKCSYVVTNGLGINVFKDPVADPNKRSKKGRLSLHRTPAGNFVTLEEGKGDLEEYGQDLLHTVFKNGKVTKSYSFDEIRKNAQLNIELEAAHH

O=C(NCC[C@@H]1[C@H]2CN(S(=O)(=O)c3ccc(F)cc3)C[C@@H]12)c1cc2ccncc2o1 [Example 72, N-(2-((1R,5S,6s)-3-((4-fluorophenyl)sulfonyl)-3-azabicyclo[3.1.0]hexan-6-yl)ethyl)furo[2,3-c]pyridine-2-carboxamide] and O=C(NCC[C@@H]1[C@H]2CN(C(=O)Nc3ccccc3)C[C@@H]12)c1cc2ccncc2o1 [Example 57, N-(2-((1R,5S,6s)-3-(phenylcarbamoyl)-3-azabicyclo[3.1.0]hexan-6-yl)ethyl)furo[2,3-c]pyridine-2-carboxamide] fall in the same range of IC50: 0.01 to 0.49 µM for the first, 0.01 to 0.49 µM for the second.

Cc1nc(C)c(C(=O)N2C[C@@H]3[C@@H](CCNC(=O)c4cc5ccncc5o4)[C@@H]3C2)o1 [Example 98, N-(2-((1R,5S,6s)-3-(2,4-dimethyloxazole-5-carbonyl)-3-azabicyclo[3.1.0]hexan-6-yl)ethyl)furo[2,3-c]pyridine-2-carboxamide] and Nc1ccc(/C=C/C(=O)NCC[C@@H]2[C@H]3CN(C(=O)c4cccc(C(=O)O)c4)C[C@@H]23)cn1 [Example 178, 3-((1R,5S,6s)-6-(2-((E)-3-(6-aminopyridin-3-yl)acrylamido)ethyl)-3-azabicyclo[3.1.0]hexane-3-carbonyl)benzoic acid] fall in the same range of IC50: 0.01 to 0.49 µM for the first, 0.01 to 0.49 µM for the second.

O=C(/C=C/c1cccnc1)NCC[C@@H]1[C@H]2CN(c3ccccc3)C[C@@H]12 [Example 117, (E)-N-(2-((1R,5S,6s)-3-phenyl-3-azabicyclo[3.1.0]hexan-6-yl)ethyl)-3-(pyridin-3-yl)acrylamide] and O=C(/C=C/c1cccnc1)NCC[C@@H]1[C@H]2CN(c3ncccn3)C[C@@H]12 [Example 123, (E)-3-(pyridin-3-yl)-N-(2-((1R,5S,6s)-3-(pyrimidin-2-yl)-3-azabicyclo[3.1.0]hexan-6-yl)ethyl)acrylamide] fall in the same range of IC50: 0.01 to 0.49 µM for the first, 0.01 to 0.49 µM for the second.

CC(C)(C)OC(=O)N1C[C@@H]2[C@@H](CCNC(=O)N3CC(c4cccnc4)C3)[C@@H]2C1 [Example 17, (1R,5S,6s)-tert-butyl 6-(2-(3-(pyridin-3-yl)azetidine-1-carboxamido)ethyl)-3-azabicyclo[3.1.0]hexane-3-carboxylate] and CC(C)(C)OC(=O)N1C[C@@H]2[C@@H](CCNC(=NC#N)Nc3ccncc3)[C@@H]2C1 [Example 18, (1R,5S,6s)-tert-butyl 6-(2-((E)-2-cyano-3-(pyridin-4-yl)guanidino)ethyl)-3-azabicyclo[3.1.0]hexane-3-carboxylate] fall in the same range of IC50: 0.01 to 0.49 µM for the first, 0.01 to 0.49 µM for the second.

First: O=C(NCC[C@@H]1[C@H]2CN(S(=O)(=O)C3CCOCC3)C[C@@H]12)c1cnc2nccn2c1 [Example 80, N-(2-((1R,5S,6s)-3-((tetrahydro-2H-pyran-4-yl)sulfonyl)-3-azabicyclo[3.1.0]hexan-6-yl)ethyl)imidazo[1,2-a]pyrimidine-6-carboxamide]
Second: O=C(NCC[C@@H]1[C@H]2CN(C(=O)OC3CCOCC3)C[C@@H]12)c1cnc2nccn2c1 [Example 79, (1R,5S,6s)-tetrahydro-2H-pyran-4-yl 6-(2-(imidazo[1,2-a]pyrimidine-6-carboxamido)ethyl)-3-azabicyclo[3.1.0]hexane-3-carboxylate]
The IC50 of the first is higher: 1 to 29 µM for the first, 0.01 to 0.49 µM for the second.

First: O=C(NCC[C@@H]1[C@H]2CN(c3ncccn3)C[C@@H]12)c1cc(-c2cccnc2)on1 [Example 131, 5-(pyridin-3-yl)-N-(2-((1R,5S,6s)-3-(pyrimidin-2-yl)-3-azabicyclo[3.1.0]hexan-6-yl)ethyl)isoxazole-3-carboxamide]
Second: Nc1ccc(/C=C/C(=O)NC[C@@H]2[C@H]3CN(C(=O)c4ccccc4)C[C@@H]23)cn1 [Example 240, (E)-3-(6-aminopyridin-3-yl)-N-(((1R,5S,6s)-3-benzoyl-3-azabicyclo[3.1.0]hexan-6-yl)methyl)acrylamide]
The IC50 of the first is lower: 0.01 to 0.49 µM for the first, 1 to 29 µM for the second. The first is the more potent here.

Same assay, conditions: [HDB]; read-out: NAMPT IC50 (μM) [HDB]

Cc1nc(C)c(C(=O)N2C[C@@H]3[C@@H](CCNC(=O)c4cc5ccncc5s4)[C@@H]3C2)o1 [Example 114, N-(2-((1R,5S,6s)-3-(2,4-dimethyloxazole-5-carbonyl)-3-azabicyclo[3.1.0]hexan-6-yl)ethyl)thieno[2,3-c]pyridine-2-carboxamide] and O=C(NCC[C@@H]1[C@H]2CN(c3ncccn3)C[C@@H]12)c1cc2ccncc2s1 [Example 200, N-(2-((1R,5S,6s)-3-(pyrimidin-2-yl)-3-azabicyclo[3.1.0]hexan-6-yl)ethyl)thieno[2,3-c]pyridine-2-carboxamide] fall in the same range of IC50: 0.01 to 0.49 µM for the first, 0.01 to 0.49 µM for the second.

Nc1ccc(/C=C/C(=O)NCC[C@@H]2[C@H]3CN(c4nc(Cl)ncc4F)C[C@@H]23)cn1 [Example 206, (E)-3-(6-aminopyridin-3-yl)-N-(2-((1R,5S,6s)-3-(2-chloro-5-fluoropyrimidin-4-yl)-3-azabicyclo[3.1.0]hexan-6-yl)ethyl)acrylamide] and COc1ccc(/C=C/C(=O)NCC[C@@H]2[C@H]3CN(c4nc(Cl)ncc4F)C[C@@H]23)cn1 [Example 212, (E)-N-(2-((1R,5S,6s)-3-(2-chloro-5-fluoropyrimidin-4-yl)-3-azabicyclo[3.1.0]hexan-6-yl)ethyl)-3-(6-methoxypyridin-3-yl)acrylamide] fall in the same range of IC50: 0.01 to 0.49 µM for the first, 0.01 to 0.49 µM for the second.

First: CCN(CC)C(=O)C(c1ccccc1)N1C[C@@H]2[C@@H](CCNC(=O)/C=C/c3cccnc3)[C@@H]2C1 (stereo partly drawn) [Example 318, (E)-N-(2-((1R,5S,6s)-3-(2-(diethylamino)-2-oxo-1-phenylethyl)-3-azabicyclo[3.1.0]hexan-6-yl)ethyl)-3-(pyridin-3-yl)acrylamide]
Second: O=C(/C=C/c1cccnc1)NCC[C@@H]1[C@H]2CN(c3ccccc3Cl)C[C@@H]12 [Example 144, (E)-N-(2-((1R,5S,6s)-3-(2-chlorphenyl)-3-azabicyclo[3.1.0]hexan-6-yl)ethyl)-3-(pyridin-3-yl)acrylamide]
The IC50 of the first is lower: less than 0.01 µM for the first, 0.01 to 0.49 µM for the second. The first is the more potent here.

Nc1ccc(/C=C/C(=O)NCC[C@@H]2[C@H]3CN(c4ccc(F)cc4)C[C@@H]23)cn1 [Example 341, (E)-3-(6-aminopyridin-3-yl)-N-(2-((1R,5S,6s)-3-(4-fluorophenyl)-3-azabicyclo[3.1.0]hexan-6-yl)ethyl)acrylamide] and O=C(/C=C/c1cccnc1)NCC[C@@H]1[C@H]2CN(c3ccc(F)cc3)C[C@@H]12 [Example 195, (E)-N-(2-((1R,5S,6s)-3-(4-fluorophenyl)-3-azabicyclo[3.1.0]hexan-6-yl)ethyl)-3-(pyridin-3-yl)acrylamide] fall in the same range of IC50: 0.01 to 0.49 µM for the first, 0.01 to 0.49 µM for the second.

Compared with O=C(/C=C/c1cccnc1)NCC[C@@H]1[C@H]2CN(c3ccc(F)c(Cl)c3)C[C@@H]12 [Example 153, (E)-N-(2-((1R,5S,6s)-3-(3-chloro-4-fluorophenyl)-3-azabicyclo[3.1.0]hexan-6-yl)ethyl)-3-(pyridin-3-yl)acrylamide], O=C(/C=C/c1cccnc1)NCC[C@@H]1[C@H]2CN(c3cc(Cl)cc(Cl)c3)C[C@@H]12 [Example 148, (E)-N-(2-((1R,5S,6s)-3-(3,5-dichlorophenyl)-3-azabicyclo[3.1.0]hexan-6-yl)ethyl)-3-(pyridin-3-yl)acrylamide] is lower in IC50: 0.01 to 0.49 µM for the first, less than 0.01 µM for the second.

Nc1ccc(/C=C/C(=O)NCC[C@@H]2[C@H]3CN(c4ncc5ccccc5n4)C[C@@H]23)cn1 [Example 165, (E)-3-(6-aminopyridin-3-yl)-N-(2-((1R,5S,6s)-3-(quinazolin-2-yl)-3-azabicyclo[3.1.0]hexan-6-yl)ethyl)acrylamide] and NC(=O)c1ccc(N2C[C@@H]3[C@@H](CCNC(=O)/C=C/c4cccnc4)[C@@H]3C2)cc1 [Example 186, 4-((1R,5S,6s)-6-(2-((E)-3-(pyridin-3-yl)acrylamido)ethyl)-3-azabicyclo[3.1.0]hexan-3-yl)benzamide] fall in the same range of IC50: 0.01 to 0.49 µM for the first, 0.01 to 0.49 µM for the second.

First: CN(C)CCOc1ncc(F)c(N2C[C@@H]3[C@@H](CCNC(=O)/C=C/c4cccnc4)[C@@H]3C2)n1 [Example 311, (E)-N-(2-((1R,5S,6s)-3-(2-(2-(dimethylamino)ethoxy)-5-fluoropyrimidin-4-yl)-3-azabicyclo[3.1.0]hexan-6-yl)ethyl)-3-(pyridin-3-yl)acrylamide]
Second: COc1ncc(F)c(N2C[C@@H]3[C@@H](CCNC(=O)/C=C/c4cncc(F)c4)[C@@H]3C2)n1 [Example 330, (E)-N-(2-((1R,5S,6s)-3-(5-fluoro-2-methoxypyrimidin-4-yl)-3-azabicyclo[3.1.0]hexan-6-yl)ethyl)-3-(5-fluoropyridin-3-yl)acrylamide]
The IC50 of the first is lower: less than 0.01 µM for the first, 0.01 to 0.49 µM for the second.

NC(=O)c1cccc(C(=O)N2C[C@@H]3[C@@H](CCNC(=O)/C=C/c4cccnc4)[C@@H]3C2)c1 [Example 115, 3-((1R,5S,6s)-6-(2-((E)-3-(pyridin-3-yl)acrylamido)ethyl)-3-azabicyclo[3.1.0]hexane-3-carbonyl)benzamide] and CC(C)(C)OC(=O)N1C[C@@H]2[C@@H](CCNC(=O)N3CC(c4cccnc4)C3)[C@@H]2C1 [Example 17, (1R,5S,6s)-tert-butyl 6-(2-(3-(pyridin-3-yl)azetidine-1-carboxamido)ethyl)-3-azabicyclo[3.1.0]hexane-3-carboxylate] cannot be ordered by IC50: less than 0.01 µM for the first, less than 0.01 µM for the second.
